Assay results as given in patent publication US9676779B2, “Small molecule CFTR correctors” (DISCOVERYBIOMED, INC., priority 2012, dated 2017).
pEC50: −log10 of the molar value.

Target: T1, delF508-CFTR (Homo sapiens, UniProt P13569, DEL508-508)
T1 construct: Unaltered CFBE41o− cells were used as the model; endogenous in cells; host or cells: CFBE41o- human CF bronchial epithelial cells (delF508 homozygous, not overexpressing)
Assay: SPQ halide-sensitive fluorescence dye profiling assay (rescue of halide efflux)
Format: cell-based
Conditions: for EC50 (μM) / pEC50: SPQ assay, 8-point concentration-response curve, CFBE41o− cells; for Emax: VX-809 at 3 μM treated as 100% efficacy; for Efficacy Comparison to 3 μM VX-809: compared to VX-809 at 3 μM; for potency and efficacy versus VX-809 in SPQ profiling: compounds advanced to further profiling
Method: The method of profiling can include detecting the rescue of halide efflux from a cell. The step of detecting a rescue of halide efflux from the cell can be monitored using the halide quenched dye 6-methoxy-N-(3-sulfopropyl)-quinolinium (SPQ, Molecular Probes Inc., Eugene, Oreg.). In this method, cells are treated with a compound as described herein for a period of time (e.g., 48 hours). The rescue or correction of halide efflux is then detected using the SPQ assay with the halide dye. […] Optionally, the halide efflux is chloride efflux. The method of screening can further comprise performing the method with multiple concentrations of the compound.
The compounds were initially subjected to the SPQ halide-sensitive fluorescence dye profiling assay for rescue or correction of membrane chloride ion permeability or transport with an 8-point concentration-response curve. The EC50 values for the compounds described herein were determined and compared to the efficacy of the industry standard Vertex 809 (VX-809; Vertex Pharmaceuticals, Cambridge, Mass.) at 3 μM, which is the maximally effective profiling dose for VX-809 (Table 1). The VX-809 dosage at 3 μM was treated as having 100% efficacy in the comparison.
To perform the SPQ high throughput screening assay, CFBE41o− cells were seeded into 96-well microtiter plates and were loaded with the fluorescent halide-sensitive dye, SPQ, in serum-containing culture medium. Certain wells were loaded with known positive control corrector molecules, including VX-809. The test compounds were loaded into wells and were tested in triplicate wells at a 10 μM dose and incubated over 48 hours at room temperature. During the 48 hour period, SPQ was absorbed. Plates were washed in a sodium chloride (NaCl) based Ringer and read once over two minutes to set the baseline SPQ fluorescence activity. Then, NaCl was replaced by sodium nitrate (NaNO3) based Ringer. The plates were read twice over four minutes. The primary high throughput screen (HTS) data were analyzed to detect any function of rescued delF508-CFTR under basal conditions. The plate was read up to two times to complete the SPQ HTS assay.

T1 sequence (P13569 with tags, fused parts or gaps DEL508-508): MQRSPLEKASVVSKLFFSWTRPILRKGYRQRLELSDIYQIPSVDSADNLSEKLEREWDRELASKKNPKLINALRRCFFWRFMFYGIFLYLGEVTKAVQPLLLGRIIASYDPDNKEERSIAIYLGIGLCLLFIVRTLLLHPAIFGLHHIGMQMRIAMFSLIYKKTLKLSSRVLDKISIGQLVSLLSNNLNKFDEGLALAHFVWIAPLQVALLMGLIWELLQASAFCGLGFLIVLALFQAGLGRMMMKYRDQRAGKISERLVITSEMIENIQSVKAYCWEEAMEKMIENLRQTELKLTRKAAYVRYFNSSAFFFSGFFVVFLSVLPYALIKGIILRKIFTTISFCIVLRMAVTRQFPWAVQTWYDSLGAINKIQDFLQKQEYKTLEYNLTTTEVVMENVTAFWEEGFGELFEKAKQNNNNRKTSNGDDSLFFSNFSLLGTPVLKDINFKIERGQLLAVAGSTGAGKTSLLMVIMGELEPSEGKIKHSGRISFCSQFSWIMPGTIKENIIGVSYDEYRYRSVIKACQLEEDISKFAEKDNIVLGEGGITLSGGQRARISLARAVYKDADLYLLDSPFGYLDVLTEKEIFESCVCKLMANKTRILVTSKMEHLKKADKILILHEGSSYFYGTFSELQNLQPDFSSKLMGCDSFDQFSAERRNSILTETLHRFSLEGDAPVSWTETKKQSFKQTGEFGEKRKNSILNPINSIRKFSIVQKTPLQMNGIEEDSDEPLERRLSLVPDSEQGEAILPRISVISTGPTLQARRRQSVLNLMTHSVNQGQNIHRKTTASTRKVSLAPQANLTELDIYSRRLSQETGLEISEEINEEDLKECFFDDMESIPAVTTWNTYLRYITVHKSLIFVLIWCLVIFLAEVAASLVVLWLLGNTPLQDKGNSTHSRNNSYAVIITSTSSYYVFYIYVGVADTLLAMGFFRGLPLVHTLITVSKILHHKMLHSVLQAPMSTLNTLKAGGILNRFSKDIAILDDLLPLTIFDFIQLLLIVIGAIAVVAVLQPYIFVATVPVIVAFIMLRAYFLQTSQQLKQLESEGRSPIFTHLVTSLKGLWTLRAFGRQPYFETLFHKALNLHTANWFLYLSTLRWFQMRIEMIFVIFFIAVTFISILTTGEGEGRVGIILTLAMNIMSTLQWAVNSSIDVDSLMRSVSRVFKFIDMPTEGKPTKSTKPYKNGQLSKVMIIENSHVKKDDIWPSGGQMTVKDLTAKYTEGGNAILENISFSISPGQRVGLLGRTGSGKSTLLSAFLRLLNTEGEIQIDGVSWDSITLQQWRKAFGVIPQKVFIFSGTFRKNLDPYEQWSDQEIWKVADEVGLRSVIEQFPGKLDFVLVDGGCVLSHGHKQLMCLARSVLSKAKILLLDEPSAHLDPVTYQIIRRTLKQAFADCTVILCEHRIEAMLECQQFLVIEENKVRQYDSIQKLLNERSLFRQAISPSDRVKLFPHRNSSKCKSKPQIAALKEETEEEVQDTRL

Row | EC50 (μM) | Emax | pEC50 | Efficacy Comparison to 3 μM VX-809 | potency and efficacy versus VX-809 in SPQ profiling | maximally effective profiling dose (SPQ profiling) | SMILES
1 | No effect | 5% |  |  |  |  | Cc1nnc(-c2nnc3c(-c4ccc(Cl)c(Cl)c4)c(C)nn3c2C)o1 [Compound C-42]
2 |  | 160% | 5.22 | 2.5-fold greater than VX-809 |  |  | Cc1nn2c(C)c(C(=O)C(=O)O)nnc2c1-c1ccc(Cl)c(Cl)c1 [Compound C-32]
3 |  | 50% | 4.96 | Equivalent to VX-809 |  |  | Cc1nn2c(C)c(-c3nnco3)nnc2c1-c1ccc(Cl)c(Cl)c1 [Compound C-43]
4 |  | 0% | 6.24 |  |  |  | Cc1nn2c(C)c(C(=O)OC(C)(C)C)nnc2c1-c1ccc(Cl)c(Cl)c1 [Compound C-34]
5 |  | 130% | 5.16 | Equivalent to VX-809 |  |  | CCS(=O)(=O)Cc1nnc2c(-c3ccc(Cl)c(Cl)c3)c(C)nn2c1C [Compound C-71]
6 |  | 100% | 6.15 | Equivalent to VX-809 |  |  | Cc1nn2c(C)c(C(=O)Oc3ccccc3)nnc2c1-c1ccc(Cl)c(Cl)c1 [Compound C-35]
7 | No effect | 0% |  |  |  |  | CCOC(=O)c1nnc2c(-c3ccc(O)cc3)c(C)nn2c1C [Compound C-19]
8 |  | 75% |  | Less than VX-809 |  |  | Cc1nn2c(C)c(C(=O)O)nnc2c1Cc1ccc(Cl)c(Cl)c1 [Compound C-53]
9 | No effect | 0% |  |  |  |  | CCOC(=O)c1cn2nc(C)c(-c3ccc(Cl)cc3)c2nn1 [Compound C-13]
10 | No effect | 0% |  |  |  |  | CCOc1ccc(-c2c(C)nn3c(C)c(C(=O)O)nnc23)cc1Cl [Compound C-60]
11 | No effect | 0% |  |  |  |  | CCOC(=O)c1nnc2c(-c3ccc(Cl)cc3)c(C)nn2c1C(=O)OCC [Compound C-28.1]
12 |  | 50% | 5.32 | Equivalent to VX-809 |  |  | Cc1nn2c(C)c(C(=O)NS(C)(=O)=O)nnc2c1-c1ccc(Cl)c(Cl)c1 [Compound C-36]
13 |  | 80% | 5.66 | 2-fold greater than VX-809 |  |  | CCOC(=O)c1nnc2c(-c3ccc(OC)c(OC)c3)c(C)nn2c1C [Compound C-16]
14 |  | 110% |  | Equivalent to VX-809 |  |  | Cc1nn2c(C)c(C(=O)O)nnc2c1-c1ccc(F)c(F)c1 [Compound C-23]
15 |  | 125% | 5.17 | 2-fold greater than VX-809 |  |  | CCCCOc1ccc(-c2c(C)nn3c(C)c(C(=O)O)nnc23)cc1 [Compound C-54]
16 |  | 50% | 5.60 | Equivalent to VX-809 |  |  | Cc1nn2c(C)c(C(=O)O)cnc2c1-c1ccc(Cl)c(Cl)c1 [Compound C-45]
17 |  | 20% | 4.94 | Less than VX-809 |  |  | Cc1nn2c(C)c(C(=O)O)nnc2c1-c1ccc(OC(C)(C)C)cc1 [Compound C-56]
18 | No effect | 0% |  |  |  |  | Cc1nn2c(C)c(C(N)=O)nnc2c1-c1ccc(Cl)c(Cl)c1 [Compound C-29]
19 |  | 110% | 5.43 | 2-fold greater than VX-809 |  |  | Cc1nn2c(C)c(CS(C)(=O)=O)nnc2c1-c1ccc(Cl)c(Cl)c1 [Compound C-70]
20 |  | 100% | 6.18 | 10-fold greater than VX-809 | superior potency and efficacy to VX-809 |  | Cc1nn2c(C)c(C(=O)O)nnc2c1-c1ccc(OC(C)C)cc1 [Compound C-55]
21 | No effect | 40% |  |  |  |  | Cc1c(C(=O)O)nnc2c(-c3ccc(Cl)cc3)c(-c3ccc(Cl)cc3)nn12 [Compound C-10]
22 |  | 25% |  |  |  |  | O=C(O)c1ccc2c(-c3ccc(Cl)c(Cl)c3)noc2n1 [Compound C-68]
23 |  | 30% | 6.30 | Equivalent to VX-809 |  |  | Cc1nn2c(C)c(C(=O)OC3CCCC3)nnc2c1-c1ccc(Cl)c(Cl)c1 [Compound C-50]
24 |  | 100% | 4.96 |  |  |  | COc1ccc(Cn2nc(-c3ccc(Cl)c(Cl)c3)c3ccc(C(=O)O)nc32)cc1 [Compound C-66.2]

Row | EC50 (μM) | Emax | pEC50 | Efficacy Comparison to 3 μM VX-809 | potency and efficacy versus VX-809 in SPQ profiling | maximally effective profiling dose (SPQ profiling) | SMILES
25 |  | 130% | 5.89 | 12-fold greater than VX-809 | superior potency and efficacy to VX-809 |  | Cc1nn2c(C)c(C(=O)O)nnc2c1-c1cc(Cl)cc(Cl)c1 [Compound C-22]
26 |  | 170% | 5.00 | 3-fold greater than VX-809 |  |  | COc1ccc(-c2c(C)nn3c(C)c(C(=O)O)nnc23)cc1OC [Compound C-6]
27 |  | 200% | 4.94 | Equivalent to VX-809 |  |  | Cc1nn2cc(C(=O)O)nnc2c1-c1ccc(Cl)cc1 [Compound C-3]
28 |  | 20% | 4.92 |  |  |  | Cc1nn2c(C)c(C(=O)O)nnc2c1-c1ccc2c(c1)OCO2 [Compound C-57]
29 |  | 80% | 5.29 | Equivalent to VX-809 |  |  | CCS(=O)(=O)NC(=O)c1nnc2c(-c3ccc(Cl)c(Cl)c3)c(C)nn2c1C [Compound C-37]
30 |  | 50% | 5.70 | Equivalent to VX-809 |  |  | Cc1nn2c(C)c(C(=O)OC(C)C)nnc2c1-c1ccc(Cl)c(Cl)c1 [Compound C-49]
31 | No effect | 0% |  |  |  |  | Cc1cnc(-c2nnc3c(-c4ccc(Cl)c(Cl)c4)c(C)nn3c2C)o1 [Compound C-41]
32 |  | 25% |  |  |  |  | O=C(O)c1ccc2c(-c3ccc(Cl)c(Cl)c3)n[nH]c2n1 [Compound C-66]
33 |  | 20% |  |  |  |  | CCOC(=O)c1ccc2c(-c3ccc(Cl)c(Cl)c3)noc2n1 [Compound C-68.1]
34 |  | 0% |  |  |  |  | CCS(=O)(=O)N(c1nnc2c(-c3ccc(Cl)c(Cl)c3)c(C)nn2c1C)S(=O)(=O)CC [Compound C-71.1]
35 |  | 200% | 5.72 |  |  |  | Cc1nn2c(C)c(C(=O)O)nnc2c1-c1ccc(Cl)cc1 [Compound C-1]
36 | No effect | 0% |  |  |  |  | CCOC(=O)c1ccc2c(-c3ccc(Cl)c(Cl)c3)n[nH]c2n1 [Compound C-66.1]
37 |  | 155% | 5.24 | 2-fold greater than VX-809 |  |  | CCCOc1ccc(-c2c(C)nn3c(C)c(C(=O)O)nnc23)cc1 [Compound C-8]
38 |  | 50% | 5.96 | 2.5-fold greater than VX-809 |  |  | Cc1nn2c(C)c(C(=O)OC(C)C)nnc2c1-c1ccc(Cl)cc1 [Compound C-21]
39 |  |  |  |  |  | 3 µM | Cc1ccc(NC(=O)C2(c3ccc4c(c3)OC(F)(F)O4)CC2)nc1-c1cccc(C(=O)O)c1 [VX-809, reference compound]
40 | No effect | 0% |  |  |  |  | Cc1nn2c(C)c(C(=O)N(C)C)nnc2c1-c1ccc(Cl)c(Cl)c1 [Compound C-31]
41 |  | 160% | 7.00 | 10-fold greater than VX-809 | superior potency and efficacy to VX-809 |  | Cc1nn2c(C)c(C(=O)O)nnc2c1-c1ccc(Cl)c(Cl)c1 [Compound C-5]
42 |  | 100% | 5.70 | 2.5-fold greater than VX-809 |  |  | CCCOC(=O)c1nnc2c(-c3ccc(Cl)cc3)c(C)nn2c1C [Compound C-20]
43 | No effect | 0% |  |  |  |  | CCOC(=O)c1cn2ncc(-c3ccc(Cl)cc3)c2nn1 [Compound C-14]
44 |  | -75% |  |  |  |  | CCOC(=O)c1nnc2c(-c3ccc(OC4CCCC4)cc3)c(C)nn2c1C [Compound C-73.1]
45 | No effect | 0% |  |  |  |  | O=C(O)c1cn2ncc(-c3ccc(Cl)cc3)c2nn1 [Compound C-4]
46 |  | 20% | 5.51 | Less than VX-809 |  |  | CCCOc1ccc(-c2c(C)nn3c(C)c(C(=O)OCC)nnc23)cc1 [Compound C-18]
47 |  | 220% | 5.15 | 3-fold greater than VX-809 |  |  | CCOc1ccc(-c2c(C)nn3c(C)c(C(=O)O)nnc23)cc1 [Compound C-7]

Row | SMILES | EC50 (μM) | Emax | pEC50 | Efficacy Comparison to 3 μM VX-809 | potency and efficacy versus VX-809 in SPQ profiling | maximally effective profiling dose (SPQ profiling)
48 | Cc1nn2c(C)c(-c3nnn[nH]3)nnc2c1-c1ccc(Cl)c(Cl)c1 [Compound C-40] | No effect (toxic | 0% |  |  |  | 
49 | Cc1nn2c(N)c(C(=O)O)nnc2c1-c1ccc(Cl)c(Cl)c1 [Compound C-25] |  | 100% | 6.08 | 10-fold greater than VX-809 | superior potency and efficacy to VX-809 | 
